In ChEMBL document CHEMBL1128619, “Chemoenzymatic synthesis of enantiomers of a new retinoid to investigate the role of chirality in the biological response” (Bioorg Med Chem Lett, 1995):

Tests used:
[1] = Half life in rat plasma was determined; assay type: ADME, organism-based
F9 [2] = test: Cellular activity on the differentiation was quantified by measure of plasminogen activator in mouse embryonal teratocarcinoma F9 cells; assay type: functional, cell-based
F9 [3] = test: Cellular activity on the differentiation was quantified by measure of plasminogen activator in mouse embryonal teratocarcinoma F9 cells; NA means not active; assay type: functional, cell-based

half-life [1] [h]	Structure (SMILES)	AC50 (F9 [2]) [nM]	AC50 (F9 [3])
> 6	CC(OC(=O)c1ccc(C(=O)O)cc1)c1ccc2c(c1)C(C)(C)CCC2(C)C (stereo not drawn)	350	–
> 24	C[C@H](OC(=O)c1ccc(C(=O)O)cc1)c1ccc2c(c1)C(C)(C)CCC2(C)C	–	Not Active
6	C[C@@H](OC(=O)c1ccc(C(=O)O)cc1)c1ccc2c(c1)C(C)(C)CCC2(C)C	300	–
2.3	CC1(C)CCC(C)(C)c2cc(COC(=O)c3ccc(C(=O)O)cc3)ccc21	140	–
